Experimental data published in US20190133985A1 (Orbus Therapeutics, Inc., priority 2016, published 2019).
Structures can show the parent of a compound that is named as a salt. Values belong to the compound of their own block, whether it stands above or below them.

How the values were obtained:
[1] = tested on: low-grade gliomas; conditions: adjuvant temozolomide chemotherapy; TMZ-induced mutagenesis signature in RB and AKT-mTOR pathways; cited from earlier work
[2] = tested on: GPR116 gene; assay: Exon-Seq frequency of C/T mutation at chr6: 46,867,771 in U87MG cells; conditions: for mutation rate: TMZ EC-20 for 3 days then eflornithine 100 μM
[3] = tested on: U87MG cells; assay: Exon-Seq mutation frequency in glioblastoma cell line model (nucleotides susceptible to TMZ-induced mutations); format: cell-based, human
Description: Preliminary data analysis was performed to identify nucleotides susceptible to temozolomide (TMZ)-induced mutations per TMZ concentration. Mutation frequency results were analyzed for 13,040 nucleotide polymorphisms across 6,455 genes that have been previously identified as potentially cancer related based on their description in the Catalogue of Somatic Mutations in Cancer (COSMIC) database.
Statistical analysis of the Exon-Seq data was performed using JMP™ Software. The mutation frequencies were analyzed using ANOVA analysis of variance and the Student's t-test.

[4] = tested on: MUC16 gene; assay: Exon-Seq frequency of T/A mutation at chr19: 9,071,763 in U87MG cells; conditions: for mutation rate: TMZ EC-50 for 3 days then eflornithine 200 μM
[5] = tested on: TP53BP1 gene; assay: Exon-Seq frequency of C/T mutation at chr15: 43,762,196 in U87MG cells; conditions: for mutation rate: TMZ EC-50 for 3 days then eflornithine 200 μM
[6] = tested on: ADAM 32 gene; assay: Exon-Seq frequency of G/A mutation at chr8: 38,964,647 in U87MG cells; conditions: for mutation rate: TMZ EC-50 for 3 days then eflornithine 200 μM

mutation frequency ([2]; TMZ EC-20, day 3): 69.6% | Number of nucleotides showing higher than 15% mutation frequency increase due to TMZ treatment ([3]; All three concentrations): 97 | Number of nucleotides showing higher than 15% mutation frequency increase due to TMZ treatment ([3]; At least one concentration): 876 | Mean Mutation Frequency ([3]; TMZ EC10, T = 3 days): 57% | Number of nucleotides showing higher than 15% mutation frequency increase due to TMZ treatment ([3]; TMZ EC10, 13,040 nucleotide polymorphisms across 6,455 genes): 424 | Number of nucleotides showing higher than 15% mutation frequency increase due to TMZ treatment ([3]; TMZ EC20): 436 | Mean Mutation Frequency ([3]; TMZ EC20, T = 3 days): 59% | Number of nucleotides showing higher than 15% mutation frequency increase due to TMZ treatment ([3]; TMZ EC50): 417 | Mean Mutation Frequency ([3]; TMZ EC50, T = 3 days): 60% | effect on mutation frequency, combined data set (ANOVA, Student's t-test) ([3]; TMZ EC-10): significant increase | effect on mutation frequency, combined data set (ANOVA, Student's t-test) ([3]; TMZ EC-20): significant increase | effect on mutation frequency, combined data set (ANOVA, Student's t-test) ([3]; TMZ EC-50): significant increase | mutation frequency ([4]; TMZ EC-50, day 3): 64.0% | mutation frequency ([5]; TMZ EC-50, day 3): 62.5% | mutation frequency ([6]; TMZ EC-50, day 3): 63.6%
SMILES: Cn1nnc2c(C(N)=O)ncn2c1=O [TMZ, 4-methyl-5-oxo-2,3,4,6,8-pentazabicyclo[4.3.0]nona-2,7,9-triene-9-carboxamide]
patients whose tumors showed hypermutation (alternative evolutionary path to high-grade glioma) [1]: 6 of 10

SMILES: NCCCC(N)(C(=O)O)C(F)F (racemic) [eflornithine, D,L-2-(difluoromethyl) ornithine monohydrochloride monohydrate]
mutation rate ([2]; 7 days): 60.6% | mutation rate ([2]; 14 days): 45.0% | effect on mutation rate compared to the TMZ-treated cells, combined data set (ANOVA, Student's t-test) ([3]; sequential DFMO 100 μM after TMZ EC-20): significant decrease | effect on mutation rate compared to the TMZ-treated cells, combined data set (ANOVA, Student's t-test) ([3]; sequential eflornithine 50 μM after TMZ EC-10): significant decrease | effect on mutation rate compared to the TMZ-treated cells, combined data set (ANOVA, Student's t-test) ([3]; sequential eflornithine 200 μM after TMZ EC-50): significant decrease | mutation rate ([4]; 7 days): 49.1% | mutation rate ([4]; 14 days): 47.3% | mutation rate ([5]; 7 days): 29.7% | mutation rate ([5]; 14 days): 38.4% | mutation rate ([6]; 7 days): 33.3% | mutation rate ([6]; 14 days): 43.2%
